Measurements reported in PubChem BioAssay AID1918996 (Molecular Pharmacology Branch, DTP, NCI, 2023).

Tested on: 349418-098-R-PDC complex spheroid growth
Assay: Anticancer human tumor 349418-098-R-PDC patient-derived lung adenocarcinoma cell line growth inhibition [AhR]
Conditions: for IC50: curve of first compound; for viability, T/C: stronger effect = lower value
Procedure, shortened: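 Spheroids combined tumor cells with HUVEC endothelial cells and human MSCs as stroma. AhR antagonists were paired with standard or investigational drugs, each dosed in half-log steps down from near clinical Cmax, or from 10 microM where Cmax was unknown.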

[1] = second compound 0.1 µM, first compound 0.0316 µM
[2] = second compound 0.1 µM, first compound 0.1 µM
[3] = second compound 0.1 µM, first compound 0.316 µM
[4] = second compound 0.1 µM, first compound 1 µM
[5] = second compound 0.1 µM, first compound 3.16 µM
[6] = second compound 0.1 µM, first compound 10 µM
[7] = second compound 0.316 µM, first compound 0.0316 µM
[8] = second compound 0.316 µM, first compound 0.1 µM
[9] = second compound 0.316 µM, first compound 0.316 µM
[10] = second compound 0.316 µM, first compound 1 µM
[11] = second compound 0.316 µM, first compound 3.16 µM
[12] = second compound 0.316 µM, first compound 10 µM
[13] = second compound 1 µM, first compound 0.0316 µM
[14] = second compound 1 µM, first compound 0.1 µM
[15] = second compound 1 µM, first compound 0.316 µM
[16] = second compound 1 µM, first compound 1 µM
[17] = second compound 1 µM, first compound 3.16 µM
[18] = second compound 1 µM, first compound 10 µM
[19] = second compound 3.16 µM, first compound 0.0316 µM
[20] = second compound 3.16 µM, first compound 0.1 µM
[21] = second compound 3.16 µM, first compound 0.316 µM
[22] = second compound 3.16 µM, first compound 1 µM
[23] = second compound 3.16 µM, first compound 3.16 µM
[24] = second compound 3.16 µM, first compound 10 µM
[25] = second compound 10 µM, first compound 0.0316 µM
[26] = second compound 10 µM, first compound 0.1 µM
[27] = second compound 10 µM, first compound 0.316 µM
[28] = second compound 10 µM, first compound 1 µM
[29] = second compound 10 µM, first compound 3.16 µM
[30] = second compound 10 µM, first compound 10 µM
[31] = second compound 0.1 µM, first compound 0.00949 µM
[32] = second compound 0.1 µM, first compound 0.03 µM
[33] = second compound 0.1 µM, first compound 0.0949 µM
[34] = second compound 0.1 µM, first compound 0.3 µM
[35] = second compound 0.316 µM, first compound 0.00949 µM
[36] = second compound 0.316 µM, first compound 0.03 µM
[37] = second compound 0.316 µM, first compound 0.0949 µM
[38] = second compound 0.316 µM, first compound 0.3 µM
[39] = second compound 1 µM, first compound 0.00949 µM
[40] = second compound 1 µM, first compound 0.03 µM
[41] = second compound 1 µM, first compound 0.0949 µM
[42] = second compound 1 µM, first compound 0.3 µM
[43] = second compound 3.16 µM, first compound 0.00949 µM
[44] = second compound 3.16 µM, first compound 0.03 µM
[45] = second compound 3.16 µM, first compound 0.0949 µM
[46] = second compound 3.16 µM, first compound 0.3 µM
[47] = second compound 10 µM, first compound 0.00949 µM
[48] = second compound 10 µM, first compound 0.03 µM
[49] = second compound 10 µM, first compound 0.0949 µM
[50] = second compound 10 µM, first compound 0.3 µM
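Note: spheroids exposed to agents for seven days before luminescence viability read.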
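Throughout, for viability, T/C: spheroids also contain HUVEC endothelial cells and human MSC stroma.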

CC1(C)CCC(CN2CCN(c3ccc(C(=O)NS(=O)(=O)c4ccc(NCC5CCOCC5)c([N+](=O)[O-])c4)c(Oc4cnc5[nH]ccc5c4)c3)CC2)=C(c2ccc(Cl)cc2)C1 + CC(CO)NC(=O)c1cc(-c2ccc(Cl)cc2)nn(-c2cnn(C)c2)c1=O
IC50 (second compound 0.1 µM): 6640 nM | IC50 (second compound 0.316 µM): 4530 nM | IC50 (second compound 1 µM): 5470 nM | IC50 (second compound 3.16 µM): 3020 nM | IC50 (second compound 10 µM): < 31.6 nM | viability, T/C [1]: 77.7% | viability, T/C [2]: 89.9% | viability, T/C [3]: 96.2% | viability, T/C [4]: 76.9% | viability, T/C [5]: 82.5% | viability, T/C [6]: 32.2% | viability, T/C [7]: 85.2% | viability, T/C [8]: 81.1% | viability, T/C [9]: 70.2% | viability, T/C [10]: 66.9% | viability, T/C [11]: 65.9% | viability, T/C [12]: 27.8% | viability, T/C [13]: 89.3% | viability, T/C [14]: 97.4% | viability, T/C [15]: 80% | viability, T/C [16]: 65% | viability, T/C [17]: 79.2% | viability, T/C [18]: 28.2% | viability, T/C [19]: 80% | viability, T/C [20]: 86.8% | viability, T/C [21]: 77% | viability, T/C [22]: 71.4% | viability, T/C [23]: 49% | viability, T/C [24]: 24% | viability, T/C [25]: 45% | viability, T/C [26]: 54.1% | viability, T/C [27]: 48.9% | viability, T/C [28]: 48.5% | viability, T/C [29]: 48.2% | viability, T/C [30]: 26.6%

CC1COCCN1c1cc(C2(S(C)(=N)=O)CC2)nc(-c2ccnc3[nH]ccc23)n1 (stereo not given) + CC(CO)NC(=O)c1cc(-c2ccc(Cl)cc2)nn(-c2cnn(C)c2)c1=O
IC50 (second compound 0.1 µM): 1530 nM | IC50 (second compound 0.316 µM): 1710 nM | IC50 (second compound 1 µM): 1410 nM | IC50 (second compound 3.16 µM): 750 nM | IC50 (second compound 10 µM): 1270 nM | viability, T/C [1]: 84.5% | viability, T/C [2]: 71.8% | viability, T/C [3]: 69.6% | viability, T/C [4]: 65.7% | viability, T/C [5]: 24.4% | viability, T/C [6]: 12.5% | viability, T/C [7]: 70% | viability, T/C [8]: 80.7% | viability, T/C [9]: 66.8% | viability, T/C [10]: 73.2% | viability, T/C [11]: 24.2% | viability, T/C [12]: 10.4% | viability, T/C [13]: 67.6% | viability, T/C [14]: 89.1% | viability, T/C [15]: 85.2% | viability, T/C [16]: 59% | viability, T/C [17]: 25.7% | viability, T/C [18]: 12.5% | viability, T/C [19]: 83.9% | viability, T/C [20]: 55.9% | viability, T/C [21]: 78.9% | viability, T/C [22]: 42.4% | viability, T/C [23]: 21.4% | viability, T/C [24]: 13.4% | viability, T/C [25]: 59.1% | viability, T/C [26]: 56.9% | viability, T/C [27]: 59.8% | viability, T/C [28]: 57.7% | viability, T/C [29]: 20.2% | viability, T/C [30]: 11.7%

CCN(c1cc(-c2ccc(CN3CCOCC3)cc2)cc(C(=O)NCc2c(C)cc(C)[nH]c2=O)c1C)C1CCOCC1 + CC(CO)NC(=O)c1cc(-c2ccc(Cl)cc2)nn(-c2cnn(C)c2)c1=O
IC50 (second compound 0.1 µM): > 3000 nM | IC50 (second compound 0.316 µM): > 3000 nM | IC50 (second compound 1 µM): > 3000 nM | IC50 (second compound 3.16 µM): > 3000 nM | IC50 (second compound 10 µM): 273 nM | viability, T/C [31]: 110% | viability, T/C [32]: 110% | viability, T/C [33]: 86.7% | viability, T/C [34]: 79.4% | viability, T/C (second compound 0.1 µM, first compound 0.949 µM): 87.1% | viability, T/C (second compound 0.1 µM, first compound 3 µM): 74.7% | viability, T/C [35]: 95% | viability, T/C [36]: 118% | viability, T/C [37]: 107% | viability, T/C [38]: 89.2% | viability, T/C (second compound 0.316 µM, first compound 0.949 µM): 96% | viability, T/C (second compound 0.316 µM, first compound 3 µM): 76.1% | viability, T/C [39]: 114% | viability, T/C [40]: 123% | viability, T/C [41]: 107% | viability, T/C [42]: 76.2% | viability, T/C (second compound 1 µM, first compound 0.949 µM): 95.1% | viability, T/C (second compound 1 µM, first compound 3 µM): 59.7% | viability, T/C [43]: 77.5% | viability, T/C [44]: 63.4% | viability, T/C [45]: 72.4% | viability, T/C [46]: 67.9% | viability, T/C (second compound 3.16 µM, first compound 0.949 µM): 41.9% | viability, T/C (second compound 3.16 µM, first compound 3 µM): 70.4% | viability, T/C [47]: 54.2% | viability, T/C [48]: 79% | viability, T/C [49]: 85.6% | viability, T/C [50]: 40.5% | viability, T/C (second compound 10 µM, first compound 0.949 µM): 55.5% | viability, T/C (second compound 10 µM, first compound 3 µM): 47.9%

Nc1ncn(C2CC(O)C(CO)S2)c(=O)n1 (stereo not given) + CC(CO)NC(=O)c1cc(-c2ccc(Cl)cc2)nn(-c2cnn(C)c2)c1=O
IC50 (second compound 0.1 µM): 87.6 nM | IC50 (second compound 0.316 µM): 32.4 nM | IC50 (second compound 1 µM): 45.7 nM | IC50 (second compound 3.16 µM): 24.9 nM | IC50 (second compound 10 µM): 19.9 nM | viability, T/C (second compound 0.1 µM, first compound 0.000949 µM): 86.5% | viability, T/C (second compound 0.1 µM, first compound 0.003 µM): 85.5% | viability, T/C [31]: 56.2% | viability, T/C [32]: 62.2% | viability, T/C [33]: 60.8% | viability, T/C [34]: 31.9% | viability, T/C (second compound 0.316 µM, first compound 0.000949 µM): 72.6% | viability, T/C (second compound 0.316 µM, first compound 0.003 µM): 118% | viability, T/C [35]: 68.8% | viability, T/C [36]: 52.6% | viability, T/C [37]: 47.8% | viability, T/C [38]: 27.4% | viability, T/C (second compound 1 µM, first compound 0.000949 µM): 96.4% | viability, T/C (second compound 1 µM, first compound 0.003 µM): 68.9% | viability, T/C [39]: 90.5% | viability, T/C [40]: 53.7% | viability, T/C [41]: 37.8% | viability, T/C [42]: 21.4% | viability, T/C (second compound 3.16 µM, first compound 0.000949 µM): 86.1% | viability, T/C (second compound 3.16 µM, first compound 0.003 µM): 58% | viability, T/C [43]: 66.5% | viability, T/C [44]: 47% | viability, T/C [45]: 39.9% | viability, T/C [46]: 24.2% | viability, T/C (second compound 10 µM, first compound 0.000949 µM): 53.5% | viability, T/C (second compound 10 µM, first compound 0.003 µM): 71.8% | viability, T/C [47]: 60% | viability, T/C [48]: 43.1% | viability, T/C [49]: 33.3% | viability, T/C [50]: 24.5%
